Laboratory results from patent US8288379B2, “Thia-triaza-cyclopentazulenes” (Boehringer Ingelheim International GmbH, priority 2009, dated 2012).

Assays:
PC-3 cells = assay: Inhibition of proliferation: CyQuant PC-3; assay type: cell-based; conditions: 72 h; PC-3 human prostate carcinoma cells, incubated with compounds for 3 days, CyQuant NF DNA dye
Protocol: (§1) • GFP-4E-BP1 substrate; Invitrogen order no. PV4759 • Lanthascreen Tb-anti-p4E-BP1 (pThr46) Antibody Kit; Invitrogen order no. PV4758 • FRAP1 (mTOR) kinase; Invitrogen order no. […] Preparation of Reagents: Note: Thaw and keep mTOR, the substrate, ATP, and the antibody on ice prior to making working dilutions. Working dilutions of these components can be kept at room temperature for short periods of time the day of use. 1. Add 2 ml of 5× Assay Buffer to 8 ml water to prepare 10 ml of 1× Assay Buffer. Note: The concentration of 1× Assay Buffer is 50 mM HEPES pH 7.5, 0.01% Polysorbate 20, 1 mM EGTA, and 10 mM MnCl2. 2. Prepare Antibody/EDTA Solution by first adding 2.75 n1 of Tb-anti p4E-BP1 Antibody to 2397 n1 of LanthaScreen™ TR-FRET Dilution Buffer. Then, add 100 n1 of 0.5 M EDTA. 3. Prepare 4× Substrate/Enzyme Solution by first adding 72 n1 of GFP-4E-BP1 (22 nM) to 926 n1 of 1× Assay Buffer. Then, add 1.6 n1 of mTOR (0.45 mg/mL). 4. Prepare ATP Solution by adding 3.2 n1 of 10 mM ATP to 1997 n1 of 1× Assay Buffer. Serial Dilution of Inhibitors (16 Point Curve): Note: It is recommended that inhibitors be serially diluted in DMSO, then diluted to a 4× working concentration with 1× Assay Buffer. The below procedure describes dilution of compounds in a 96-well format prior to transfer to a 384-well format for kinase assays. This procedure calls for dilution of the compounds in 2 adjacent columns of a 96-well plate, which upon transfer to a single column of a 384-well plate with an 8-channel pipette will align the samples in order of concentration. 1. Dispense 40 n1 of DMSO to two adjacent columns of a 96 well plate per compound (e.g. columns 1 and 2). 2. Add 10 n1 of inhibitor stock (10 mM) to the first well of the first column (A1) and mix. 3. Remove 10 n1 from A1 and transfer to the adjacent well in the next column (B1) and mix. 4. Remove 10 n1 from B1 and transfer to the next well in the first column (B2) and mix. 5. Repeat this dilution pattern through well H1 and leave the last well (H2) as DMSO only. 6. Remove 4 n1 of diluted compounds and add to 96 n1 of 1× Assay Buffer in a 96-well plate making 4× compound dilutions. Kinase Reaction: 1. Add 2.5 μl of 4× compound dilutions from the first column of the 96-well plate to every other well of column 1 of a 384-well plate with an 8-channel pipette. Repeat for columns 2 and 3. 2. Add 2.5 n1 of 4× compound dilutions from the second column of the 96-well plate to the empty wells of column 1 of the 384-well plate with an 8-channel pipette. Repeat for columns 2 and 3. Note: This procedure aligns the compound dilutions in order of concentration. 3. Add 2.5 n1 of 4× Enzyme/Substrate Solution to all columns 1-6. 4. Preincubate for 30 min. at RT (shaker). 5. Add 5 n1 of ATP Solution to all wells to start reactions. 6. Shake the assay plate on a plate shaker for 30 seconds. 7. Incubate the assay plate for one hour at room temperature (20-25° C.). Stop Step and Fluorescence Detection: 1. Add 10 n1 of Antibody/EDTA Solution to each well in columns 1-9. 2. Shake the assay plate on a plate shaker for 30 seconds. 3. Incubate the assay plate for one hour at room temperature (20-25° C.). 4. Measure the GFP (FRET) and terbium (reference) emission signals on a fluorescence plate reader (e.g. Perkin Elmer Envision). Data Analysis: 1. Calculate the emission ratio for each sample by dividing the GFP (FRET) signal by the terbium (reference) signal. 2. Plot the concentration of each compound versus the emission ratio. Determine the concentration of compound required to reach 50% of the maximum signal (IC50). Determination of IC50 values can be obtained by curve fitting (sigmoidal dose response, variable slope) using Prism software from GraphPad). Inhibition of Proliferation: CyQuant PC-3 Description:
The CyQuant NF assay is based on measurement of cellular DNA content via fluorescent dye binding. Because cellular DNA content is highly regulated, it is closely proportional to cell number. […]

FRAP1 (mTOR) kinase = target: T1, FRAP1 (mTOR) kinase (Homo sapiens, UniProt P42345); assay: Inhibition of mTOR-induced p-4E-BP1 phosphorylation (TR-FRET mTOR Activity Kit; Invitrogen); assay type: biochemical; conditions: 400 nM GFP-4E-BP1 substrate, ~150 ng/mL mTOR, one hour at room temperature
T1 construct: purchased Invitrogen PV4753
T1 sequence (P42345 1360-2549 limits assumed): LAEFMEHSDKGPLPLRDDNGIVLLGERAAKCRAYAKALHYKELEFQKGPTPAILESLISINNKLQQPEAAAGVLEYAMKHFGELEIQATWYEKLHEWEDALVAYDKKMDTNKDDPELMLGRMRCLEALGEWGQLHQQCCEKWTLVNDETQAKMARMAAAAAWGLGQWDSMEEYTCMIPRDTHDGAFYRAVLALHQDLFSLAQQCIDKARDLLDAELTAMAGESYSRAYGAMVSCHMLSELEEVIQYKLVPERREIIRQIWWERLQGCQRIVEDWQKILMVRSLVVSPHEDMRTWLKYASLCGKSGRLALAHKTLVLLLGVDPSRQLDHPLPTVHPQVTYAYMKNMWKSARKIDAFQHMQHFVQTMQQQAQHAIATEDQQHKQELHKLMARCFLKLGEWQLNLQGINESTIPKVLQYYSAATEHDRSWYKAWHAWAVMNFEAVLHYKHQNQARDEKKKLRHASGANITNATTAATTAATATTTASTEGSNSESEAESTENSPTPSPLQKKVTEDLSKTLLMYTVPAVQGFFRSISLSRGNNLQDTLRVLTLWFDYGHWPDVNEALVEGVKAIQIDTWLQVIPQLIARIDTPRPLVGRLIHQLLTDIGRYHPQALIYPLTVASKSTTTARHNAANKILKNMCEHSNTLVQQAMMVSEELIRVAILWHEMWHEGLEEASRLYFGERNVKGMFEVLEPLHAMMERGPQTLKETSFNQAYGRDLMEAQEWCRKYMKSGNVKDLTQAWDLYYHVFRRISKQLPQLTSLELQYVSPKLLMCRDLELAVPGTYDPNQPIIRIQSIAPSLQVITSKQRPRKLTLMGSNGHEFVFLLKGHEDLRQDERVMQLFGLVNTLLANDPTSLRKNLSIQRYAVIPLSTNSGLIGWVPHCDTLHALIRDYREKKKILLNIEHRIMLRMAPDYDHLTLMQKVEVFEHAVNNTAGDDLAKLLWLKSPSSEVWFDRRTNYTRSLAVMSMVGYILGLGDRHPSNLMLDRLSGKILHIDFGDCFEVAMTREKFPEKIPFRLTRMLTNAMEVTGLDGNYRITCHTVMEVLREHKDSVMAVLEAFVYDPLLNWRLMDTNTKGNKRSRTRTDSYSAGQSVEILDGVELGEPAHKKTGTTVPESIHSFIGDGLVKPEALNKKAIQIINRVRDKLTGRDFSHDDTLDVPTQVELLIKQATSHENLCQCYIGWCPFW
Text: Inhibition of mTOR-Induced p-4E-BP1 Phosphorylation (TR-FRET mTOR Activity Kit; Invitrogen)
as §1, with “Description: […]” for “Description:”

CNc1ccc(-c2nn(-c3ccccc3F)c3c2CCCc2nc(NC(=O)N(C)C)sc2-3)cn1 [Example B-43]
EC50 (PC-3 cells): 191 nM | IC50 (FRAP1 (mTOR) kinase): 141 nM

CNc1ccc(-c2nn(-c3ccccc3Cl)c3c2CCCc2nc(NC(=O)N(C)C)sc2-3)cn1 [Example B-45]
EC50 (PC-3 cells): 375 nM | IC50 (FRAP1 (mTOR) kinase): 782 nM

CNc1ccc(-c2nn(-c3ccccc3C)c3c2CCCc2nc(NC(=O)N(C)C)sc2-3)cn1 [Example B-46]
EC50 (PC-3 cells): 447 nM | IC50 (FRAP1 (mTOR) kinase): 1200 nM

C=CCn1nc(-c2ccc(NC)nc2)c2c1-c1sc(NC(=O)N(C)C)nc1CCC2 [Example B-47]
EC50 (PC-3 cells): 703 nM | IC50 (FRAP1 (mTOR) kinase): 734 nM

CCn1nc(-c2ccc(NC)nc2)c2c1-c1sc(NC(=O)N(C)C)nc1CCC2 [Example B-48]
EC50 (PC-3 cells): 710 nM | IC50 (FRAP1 (mTOR) kinase): 451 nM

CN(C)C(=O)Nc1nc2c(s1)-c1c(c(-c3ccc(N)nc3)nn1C1CCN(C3CC3)CC1)CCC2 [Example B-49, 3-[3-(6-Amino-pyridin-3-yl)-1-(1-cyclopropyl-piperidin-4-yl)-1,4,5,6-tetrahydro-9-thia-1,2,7-triaza-cyclopenta[e]azulen-8-yl]-1,1-dimethyl-urea]
EC50 (PC-3 cells): 156 nM | IC50 (FRAP1 (mTOR) kinase): 41 nM

CNc1ccc(-c2nn(-c3ccccc3C)c3c2CCCc2nc(NC(=O)OC)sc2-3)cn1 [Example B-50, [3-(6-Methylamino-pyridin-3-yl)-1-o-tolyl-1,4,5,6-tetrahydro-9-thia-1,2,7-triaza-cyclopenta[e]azulen-8-yl]-carbamic acid methyl ester]
EC50 (PC-3 cells): 209 nM | IC50 (FRAP1 (mTOR) kinase): 30 nM

COCCn1nc(-c2ccc(N)nc2)c2c1-c1sc(NC(=O)N(C)C)nc1CCC2 [Example B-51]
EC50 (PC-3 cells): 523 nM | IC50 (FRAP1 (mTOR) kinase): 187 nM

C=CCn1nc(-c2ccc(N)nc2)c2c1-c1sc(NC(=O)N(C)C)nc1CCC2 [Example B-52]
EC50 (PC-3 cells): 326 nM | IC50 (FRAP1 (mTOR) kinase): 146 nM

CN(C)C(=O)Nc1nc2c(s1)-c1c(c(-c3ccc(N)nc3)nn1-c1ccccc1Cl)CCC2 [Example B-54]
EC50 (PC-3 cells): 390 nM | IC50 (FRAP1 (mTOR) kinase): 570 nM

Cc1ccccc1-n1nc(-c2ccc(N)nc2)c2c1-c1sc(NC(=O)N(C)C)nc1CCC2 [Example B-55]
EC50 (PC-3 cells): 450 nM | IC50 (FRAP1 (mTOR) kinase): 170 nM

CNc1ccc(-c2nn(C3CCN(C)CC3)c3c2CCCc2nc(NC(=O)N(C)C)sc2-3)cn1 [Example B-56]
EC50 (PC-3 cells): 579 nM | IC50 (FRAP1 (mTOR) kinase): 379 nM

CNc1ccc(-c2nn(C3CCN(C4CC4)CC3)c3c2CCCc2nc(NC(=O)N(C)C)sc2-3)cn1 [Example B-57]
EC50 (PC-3 cells): 147 nM | IC50 (FRAP1 (mTOR) kinase): 70 nM

CCNc1ccc(-c2nn(C3CCCOC3)c3c2CCCc2nc(NC(C)=O)sc2-3)cn1 (stereo not drawn) [Example B-60]
EC50 (PC-3 cells): 170 nM | IC50 (FRAP1 (mTOR) kinase): 109 nM

CC(=O)Nc1nc2c(s1)-c1c(c(-c3ccc(N)nc3)nn1-c1ccccc1C)CCC2 [Example B-61, N-[3-(6-Amino-pyridin-3-yl)-1-o-tolyl-1,4,5,6-tetrahydro-9-thia-1,2,7-triaza-cyclopenta[e]azulen-8-yl]-acetamide]
EC50 (PC-3 cells): 69 nM | IC50 (FRAP1 (mTOR) kinase): 15 nM

CC(=O)Nc1nc2c(s1)-c1c(c(-c3ccc(N)nc3)nn1-c1ccccc1F)CCC2 [Example B-62, N-[3-(6-Amino-pyridin-3-yl)-1-(2-fluoro-phenyl)-1,4,5,6-tetrahydro-9-thia-1,2,7-triaza-cyclopenta[e]azulen-8-yl]-acetamide]
EC50 (PC-3 cells): 47 nM | IC50 (FRAP1 (mTOR) kinase): 10 nM

CC(=O)Nc1nc2c(s1)-c1c(c(-c3ccc(N)nc3)nn1-c1ccccc1Br)CCC2 [Example B-63, N-[3-(6-Amino-pyridin-3-yl)-1-(2-bromo-phenyl)-1,4,5,6-tetrahydro-9-thia-1,2,7-triaza-cyclopenta[e]azulen-8-yl]-acetamide]
EC50 (PC-3 cells): 143 nM | IC50 (FRAP1 (mTOR) kinase): 27 nM

CC(=O)Nc1nc2c(s1)-c1c(c(-c3ccc(N)nc3)nn1-c1ccccc1Cl)CCC2 [Example B-64, N-[3-(6-Amino-pyridin-3-yl)-1-(2-chloro-phenyl)-1,4,5,6-tetrahydro-9-thia-1,2,7-triaza-cyclopenta[e]azulen-8-yl]-acetamide]
EC50 (PC-3 cells): 82 nM | IC50 (FRAP1 (mTOR) kinase): 9 nM
